Source: PubChem BioAssay (NCI)
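Where inhibition never reached the appropriate level, the endpoint shown equals the highest concentration tested. Otherwise, values were interpolated linearly from a five-concentration, 48-hour dose response in 96-well plates. GI50 = concentration required for 50% inhibition of growth. TGI denotes the concentration required for complete inhibition of growth.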

Experiments:
Assay in all cases: NCI tumour cell line growth inhibition, 48 h
COLO 205 colon = test system: COLO 205 colon
NCI-H522 lung = test system: NCI-H522 lung
OVCAR-5 ovarian = test system: OVCAR-5 ovarian
PC-3 prostate = test system: PC-3 prostate
RPMI-8226 leukemia = test system: RPMI-8226 leukemia
SF-295 CNS = test system: SF-295 CNS
SF-539 CNS = test system: SF-539 CNS
SK-MEL-2 melanoma = test system: SK-MEL-2 melanoma
MDA-N = test system: MDA-N

Row | Structure (SMILES) | GI50 (COLO 205 colon) [µM] | TGI (COLO 205 colon) [µM] | GI50 (NCI-H522 lung) [µM] | TGI (NCI-H522 lung) [µM] | GI50 (OVCAR-5 ovarian) [µM] | TGI (OVCAR-5 ovarian) [µM] | GI50 (PC-3 prostate) [µM] | TGI (PC-3 prostate) [µM] | GI50 (RPMI-8226 leukemia) [µM] | TGI (RPMI-8226 leukemia) [µM] | GI50 (SF-295 CNS) [µM] | TGI (SF-295 CNS) [µM] | GI50 (SF-539 CNS) [µM] | TGI (SF-539 CNS) [µM] | GI50 (SK-MEL-2 melanoma) [µM] | TGI (SK-MEL-2 melanoma) [µM] | TGI (MDA-N) [µM]
1 | Cc1ccc(-c2cc(O)c(-c3ccc(C)cc3C)cc2O)c(C)c1 | 10.2 | 24.6 | 4.67 | 16.3 | 18 | 33.5 | 3.95 | 57.1 | 4.93 | 55 | 6.96 | 36.1 | 10.7 | 23.2 | 15.4 | 30.1 | –
2 | C[C@@H](Nc1nc(Nc2ccc(F)c(Cl)c2)nc2ccccc12)C1CC1 | 1.71 | 3.46 | 4.32 | 19.5 | 3.73 | 16 | 2.19 | 8.04 | 1.33 | 3.81 | 1.88 | 8.92 | 3.16 | 12.4 | 5.88 | 24.9 | –
3 | N#CC1C=Cc2c(ccc3ccccc23)N1C(=O)c1ccccc1 (stereo unspecified) | 0.251 | 0.706 | 0.0274 | 0.0924 | 0.519 | > 100 | 0.333 | > 100 | 0.39 | > 100 | 0.0268 | 0.0747 | 0.238 | – | 4.61 | > 60.7 | –
4 | CC(C)=CCCC(C)C1=C(O)C(=O)C(C)=CC1=O (stereo unspecified) | – | 18.2 | – | 4.48 | – | 33.5 | – | 33 | – | > 100 | – | > 100 | – | 41.9 | – | 34 | 21.7
5 | O=C1OCC2=C1C(c1ccccc1)c1cc3c(cc1N2CCO)OCCO3 (stereo unspecified) | 0.24 | 0.978 | 0.0593 | 0.165 | 2.12 | > 50 | 0.182 | > 50 | 0.392 | > 50 | 0.183 | – | 0.298 | – | 0.156 | 0.432 | –
6 | CC(=O)c1cc(O)c2ccccc2c1O | 19 | 34.4 | 14.5 | 35.4 | 23.7 | 43 | 20.3 | 50.8 | 22.7 | 60.5 | 18.5 | 38.8 | 22.5 | 40.6 | 20.4 | 38.7 | –
7 | O=C1C(Cl)=C(Nc2cccc(O)c2)C(=O)N1Cc1ccc(Cl)cc1Cl | 3.11 | 30.2 | 1.43 | 9.95 | 11.7 | 29.2 | 4.88 | 19.6 | 1.08 | 14 | 11.3 | 25.1 | 0.561 | 13.8 | 1.25 | 11.1 | –
8 | Cc1cc(Nc2cc(N)ncn2)c(=O)n2c1C(=O)NC21CCCCC1 | > 100 | > 100 | > 100 | > 100 | > 100 | > 100 | > 100 | > 100 | > 100 | > 100 | 46.8 | > 100 | 94.6 | > 100 | 58.2 | > 100 | –
9 | Cc1cccc(Cc2cnc(NC(=O)CCc3ccc(C)o3)s2)c1 | 0.227 | 0.716 | 0.183 | – | 0.798 | > 100 | 0.336 | > 100 | 0.318 | > 100 | 0.195 | 12.6 | 0.202 | 0.642 | 0.404 | > 100 | –
10 | COc1ccc2ccc3oc([N+](=O)[O-])cc3c2c1 | 0.157 | 0.432 | 0.169 | 0.563 | 0.386 | 7.68 | 1.08 | 7.9 | 0.333 | 5.92 | 0.251 | 3.22 | 0.275 | 1.07 | 0.242 | 0.509 | –
11 | CCN(c1cc(C#CCN2CCOCC2)cc(C(=O)NCc2c(C)cc(C)[nH]c2=O)c1C)C1CCC(N(C)CCOC)CC1 (stereo unspecified) | > 100 | > 100 | > 100 | > 100 | > 100 | > 100 | > 100 | > 100 | 7.13 | > 100 | > 100 | > 100 | > 100 | > 100 | > 100 | > 100 | –
12 | C=CC1=C(C)C2=NC1=CC1=NC(=C(CC)/C1=C\O)C=C1N=C3C(=C1C)C(=O)[C@H](C(=O)OC)C3=C1NC(=C2)[C@@H](C)[C@@H]1CCC(=O)O | – | > 100 | – | > 100 | – | > 100 | – | > 100 | – | – | – | > 100 | – | > 100 | – | > 100 | > 100
13 | COc1cc(NC(=O)C2=C(N3CCOCC3)/C(=C/c3ccc(Cl)cc3)CC2)cc(OC)c1OC | > 100 | > 100 | 17.2 | > 100 | > 100 | > 100 | 6.06 | > 100 | 2.97 | > 100 | 7.09 | 40.7 | 36 | > 100 | 66.8 | > 100 | –
14 | Cc1c(Cl)cccc1NC(=O)c1sc2nc3c(cc2c1N)CCCCC3 | 0.596 | 13.2 | 0.187 | 42.3 | 1.33 | > 50 | 0.307 | 17.9 | 0.434 | > 50 | 0.17 | 10 | 0.171 | 9.07 | 0.255 | 25.2 | –
15 | COc1cc(-c2csc(NC(=O)Nc3cc(Cl)cc(Cl)c3)n2)cc(OC)c1OC | 3.11 | 11.4 | 2.05 | 7.09 | 2.25 | 6.16 | 1.59 | 3.61 | 2.42 | 9.24 | 1.55 | 3.01 | 1.99 | 4.7 | 2.61 | 7.97 | –
